Experimental data as given in US20100068150A1, “Selective Caspase Inhibitors” (The Board of Trustees of the Leland Stanford Junior …, priority 2006, published 2010).

How the values were obtained:
Format in all cases: biochemical
[1] = target: Caspase-8 (Homo sapiens, UniProt Q14790); test: Kinetic compound screening, progress curve method, caspase-8; details: for Ki(app) Caspase-8: Table III, Ki(app) = Kass or Kobs/I, 10 nM active caspase-8; for Caspase-8 Ki (app): Table IV, NI = no inhibition at concentrations tested
Sequence of Caspase-8 (Q14790 217-479): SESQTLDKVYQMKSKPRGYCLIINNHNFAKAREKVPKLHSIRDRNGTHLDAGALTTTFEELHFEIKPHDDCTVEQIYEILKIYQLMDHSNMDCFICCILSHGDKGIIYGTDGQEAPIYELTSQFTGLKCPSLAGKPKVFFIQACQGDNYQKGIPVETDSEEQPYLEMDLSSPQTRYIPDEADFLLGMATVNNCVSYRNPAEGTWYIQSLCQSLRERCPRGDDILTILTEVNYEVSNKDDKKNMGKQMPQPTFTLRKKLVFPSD
Excerpt: (§1) Table III below presents Ki(app) values for select AB compounds. Ki(app) values (also called Kass or Kobs/I) represent the speed of inhibitor binding to a target enzyme. Units are [M^−1s^−1]. NI indicates no inhibition at concentrations tested. Parent compounds AB09, ABo8, and AB07 that include the optimal substrate specificity sequences for caspases-3, […] as determined by Thornberry and colleagues (Thornberry et al., 19970 are included between double lines.
(§2) The inhibitors AB07 (NP-LEHD-AOMK, caspase-9), AB08 (NP-LETD-AOMK, caspase-8), and AB09 (NP-DEVD-AOMK, caspase-3) were synthesized and kinetic inhibition constants (Kiapp) were obtained for all compounds for caspases 3, 7, 8 and 9 using the progress curve method for pseudo-first order reactions kinetics (Salvesen, 1989) (structures shown in Table I). […] Ki(app) values (also called Kass or Kobs/I) represent the speed of inhibitor binding to a target enzyme. Units are [M-1s-1]. NI indicates no inhibition at concentrations tested, ND indicates data not determined, SD indicates standard deviation.
(§3) Compound screening was completed using the progress curve method as described (Salvesen, 1989). All screening was carried out in caspase reaction buffer. The caspase-9 specific compounds AB38, 40, 41 and 42 were screened in caspase reaction buffer and in caspase buffer with 1M sodium citrate instead of sucrose as described (Pop, 2006) The concentrations of active caspases used is as follows: 5 nM active caspase-3, 5 nM active caspase-7, 10 nM active caspase-8, and 50 nM active caspase-9. To ensure full activation, caspases 3/7, 8 and 9 were preincubated at 37° C. for 5, 10, or 40 minutes respectively before kinetic measurements were made.

[2] = target: T1, Caspase-9 (Homo sapiens, UniProt P55211); test: Kinetic compound screening, progress curve method, caspase-9; details: for Ki(app) Caspase-9: Table III, Ki(app) = Kass or Kobs/I, 50 nM active caspase-9; for Ki(app) Caspase-9 / Caspase-9 Ki (app): NI = no inhibition at concentrations tested; for Caspase-9 Ki (app): Table IV
T1 sequence (P55211 1-416): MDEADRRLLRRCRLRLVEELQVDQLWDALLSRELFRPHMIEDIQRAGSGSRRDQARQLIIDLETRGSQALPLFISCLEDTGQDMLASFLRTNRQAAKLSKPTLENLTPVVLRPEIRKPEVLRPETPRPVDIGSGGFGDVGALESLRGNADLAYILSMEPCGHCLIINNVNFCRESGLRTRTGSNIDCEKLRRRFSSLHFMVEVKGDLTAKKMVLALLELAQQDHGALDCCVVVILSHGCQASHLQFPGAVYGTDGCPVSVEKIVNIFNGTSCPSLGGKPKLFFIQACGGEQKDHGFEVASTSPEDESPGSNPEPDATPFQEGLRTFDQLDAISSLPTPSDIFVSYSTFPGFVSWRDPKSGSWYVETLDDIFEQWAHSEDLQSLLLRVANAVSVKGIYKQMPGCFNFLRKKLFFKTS
Excerpt: as §1, §2, §3

[3] = target: T2, Caspase-3 (Homo sapiens, UniProt P42574); test: Kinetic compound screening, progress curve method, caspase-3; details: for Ki(app) Caspase-3: Table III, Ki(app) = Kass or Kobs/I, 5 nM active caspase-3; for Caspase-3 Ki(app): Table IV
T2 sequence (P42574 29-175 limits assumed): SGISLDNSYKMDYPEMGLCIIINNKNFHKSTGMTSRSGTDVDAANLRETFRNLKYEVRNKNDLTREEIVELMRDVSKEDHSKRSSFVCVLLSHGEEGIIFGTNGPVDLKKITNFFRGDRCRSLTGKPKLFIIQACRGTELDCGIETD
T2 sequence (P42574 176-277 limits assumed): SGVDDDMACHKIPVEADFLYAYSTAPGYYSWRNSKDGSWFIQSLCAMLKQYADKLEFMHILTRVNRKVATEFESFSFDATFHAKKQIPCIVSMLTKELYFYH
Excerpt: as §1, §2, §3

[4] = target: T3, Caspase-7 (Homo sapiens, UniProt P55210); test: Kinetic compound screening, progress curve method, caspase-7; details: for Ki(app) Caspase-7: Table III, Ki(app) = Kass or Kobs/I, 5 nM active caspase-7; for Caspase-7 Ki (app): Table IV
T3 sequence (P55210 1-303): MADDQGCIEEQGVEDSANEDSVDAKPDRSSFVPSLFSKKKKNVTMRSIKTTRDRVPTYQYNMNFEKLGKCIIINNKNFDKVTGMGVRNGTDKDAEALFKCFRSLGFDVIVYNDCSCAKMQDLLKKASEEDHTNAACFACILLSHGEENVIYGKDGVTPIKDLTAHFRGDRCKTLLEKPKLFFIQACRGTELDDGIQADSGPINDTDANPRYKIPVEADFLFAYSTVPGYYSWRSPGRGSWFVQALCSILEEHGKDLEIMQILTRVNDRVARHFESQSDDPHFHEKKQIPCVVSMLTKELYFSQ
Excerpt: as §1, §2, §3

SMILES	inhibition of caspase-8, in words [1]	Ki(app) Caspase-8 [1]	Caspase-8 Ki (app) [1]	Ki(app) Caspase-9 [2]	Caspase-9 Ki (app) [2]	Ki(app) Caspase-3 [3]	Caspase-3 Ki(app) [3]	Ki(app) Caspase-7 [4]	Caspase-7 Ki (app) [4]	activity for caspase-9, in words [2]
Cc1cccc(C)c1C(=O)OCC(=O)[C@H](CC(=O)O)NC(=O)[C@H](Cc1cc[nH]c1)NC(=O)[C@H](CCC(=O)O)NC(=O)[C@H](CC(C)C)NC(=O)Cc1ccc(O)c([N+](=O)[O-])c1 [AB07, Np-L-E- H-D-DMBA]	more rapid inhibition of caspase-8	506,912 M^−1s^−1	506,912 M-1s-1	20,141 M^−1s^−1	41 M⁻¹ s⁻¹	75,295 M^−1s^−1	75,295 M-1s-1	10,447 M^−1s^−1	10,447 M-1s-1	–
Cc1cccc(C)c1C(=O)OCC(=O)[C@H](CC(=O)O)NC(=O)[C@@H](NC(=O)[C@H](CCC(=O)O)NC(=O)[C@H](CC(C)C)NC(=O)Cc1ccc(O)c([N+](=O)[O-])c1)C(C)O (stereo partly drawn) [AB08, Np-L-E- T-D-DMBA]	–	599,788 M^−1s^−1	599,788 M-1s-1	<5,000 M^−1s^−1	<5,000 M-1s-1	127,835 M^−1s^−1	127,835 M-1s-1	19,424 M^−1s^−1	19,424 M-1s-1	–
Cc1cccc(C)c1C(=O)OCC(=O)[C@H](CC(=O)O)NC(=O)C1CCCN1C(=O)[C@@H](CCC(=O)O)NC(=O)[C@H](CC(=O)O)NC(=O)Cc1ccc(O)c([N+](=O)[O-])c1 (stereo partly drawn) [AB11, NP-D-E- P-D-DMBA]	–	580,547 M^−1s^−1	580,547 M-1s-1	47,362 M^−1s^−1	47,362 M-1s-1	2,482,333 M^−1s^−1	2,482,333 M-1s-1	199,341 M^−1s^−1	199,341 M-1s-1	–
Cc1ccc(C[C@H](NC(=O)[C@H](CC(=O)O)NC(=O)Cc2ccc(O)c([N+](=O)[O-])c2)C(=O)N[C@H](C(=O)N[C@@H](CC(=O)O)C(=O)COC(=O)c2c(C)cccc2C)C(C)C)cc1 [AB12, Np-D-E-29-V-D-DMBA]	–	271,626 M^−1s^−1	271,626 M-1s-1	–	–	5,652,900 M^−1s^−1	5,652,900 M-1s-1	783,840 M^−1s^−1	783,840 M-1s-1	–
Cc1cccc(C)c1C(=O)OCC(=O)[C@H](CC(=O)O)NC(=O)[C@@H](NC(=O)[C@@H](NC(=O)[C@H](CC(=O)O)NC(=O)Cc1ccc(O)c([N+](=O)[O-])c1)c1ccccc1)C(C)C [AB13, Np-D-E-34-V-D-DMBA]	–	<5,000 M^−1s^−1	<5,000 M-1s-1	–	–	3,416,050 M^−1s^−1	3,416,050 M-1s-1	279,519 M^−1s^−1	279,519 M-1s-1	–
Cc1cccc(C)c1C(=O)OCC(=O)[C@H](CC(=O)O)NC(=O)[C@@H](NC(=O)[C@@H](NC(=O)[C@H](Cc1ccc2ccccc2c1)NC(=O)Cc1ccc(O)c([N+](=O)[O-])c1)c1ccccc1)C(C)C [AB15, Np-26-34-V-D-DMBA]	–	–	–	–	–	–	133,705 M-1s-1	–	–	–
Cc1cccc(C)c1C(=O)OCC(=O)[C@H](CC(=O)O)NC(=O)[C@@H](NC(=O)[C@H](Cc1ccccn1)NC(=O)[C@H](Cc1ccc2ccccc2c1)NC(=O)Cc1ccc(O)c([N+](=O)[O-])c1)C(C)C [AB16, Np-26-3-V-D-DMBA]	–	121,650 M^−1s^−1	121,650 M-1s-1	–	–	484,495 M^−1s^−1	484,495 M-1s-1	24,185 M^−1s^−1	24,185 M-1s-1	–
Cc1cccc(C)c1C(=O)OCC(=O)[C@H](CC(=O)O)NC(=O)[C@@H](NC(=O)C(CCC(=O)O)NC(=O)[C@H](Cc1ccc2ccccc2c1)NC(=O)Cc1ccc(O)c([N+](=O)[O-])c1)C(C)C (stereo partly drawn) [AB17, Np-26-E-V-D-DMBA]	–	126,323 M^−1s^−1	126,323 M-1s-1	–	–	781,733 M^−1s^−1	781,733 M-1s-1	448,155 M^−1s^−1	448,155 M-1s-1	–
Cc1cccc(C)c1C(=O)OCC(=O)[C@H](CC(=O)O)NC(=O)[C@@H](NC(=O)[C@H](CCC(=O)O)NC(=O)[C@H](Cc1ccc(I)cc1)NC(=O)Cc1ccc(O)c([N+](=O)[O-])c1)C(C)O (stereo partly drawn) [AB18, NP-31-E-T-D-DMBA]	–	572,012 M^−1s^−1	572,012 M-1s-1	12,320 M^−1s^−1	12,320 M-1s-1	216,040 M^−1s^−1	216,040 M-1s-1	234,945 M^−1s^−1	234,945 M-1s-1	–
Cc1cccc(C)c1C(=O)OCC(=O)[C@H](CC(=O)O)NC(=O)[C@@H](NC(=O)[C@H](CCC(=O)O)NC(=O)[C@H](Cc1ccc(I)cc1)NC(=O)Cc1ccc(O)c([N+](=O)[O-])c1)C1Cc2ccccc2C1 [AB19, NP-31-E-23-D-DMBA]	retained relatively good potency for caspase-8	396,225 M^−1s^−1	396,225 M-1s-1	–	–	179,086 M^−1s^−1	179,086 M-1s-1	42,994 M^−1s^−1	42,994 M-1s-1	no measurable activity for caspase-9
Cc1ccc(C[C@H](NC(=O)Cc2ccc(O)c([N+](=O)[O-])c2)C(=O)N[C@@H](CCC(=O)O)C(=O)N[C@H](C(=O)N[C@@H](CC(=O)O)C(=O)COC(=O)c2c(C)cccc2C)C(C)O)cc1 (stereo partly drawn) [AB20, Np-29-E-T-D-DMBA]	highest kinetic inhibition constants for caspase-8 that we have measured so far	1,071,401 M^−1s^−1	1,071,401 M-1s-1	41,300 M^−1s^−1	41,300 M-1s-1	570,900 M^−1s^−1	570,900 M-1s-1	181,332 M^−1s^−1	181,332 M-1s-1	–
Cc1cccc(C)c1C(=O)OCC(=O)[C@H](CC(=O)O)NC(=O)C1(NC(=O)[C@H](CCC(=O)O)NC(=O)[C@H](CC(=O)O)NC(=O)Cc2ccc(O)c([N+](=O)[O-])c2)CC1 [AB29, Np-D-E-11-D-DMBA]	–	–	90,503 M-1s-1	–	–	–	341,429 M-1s-1	–	–	–
Cc1ccc(C[C@H](NC(=O)[C@H](CC(=O)O)NC(=O)Cc2ccc(O)c([N+](=O)[O-])c2)C(=O)NC2(C(=O)N[C@@H](CC(=O)O)C(=O)COC(=O)c3c(C)cccc3C)CC2)cc1 [AB30, Np-D-30-11-D-DMBA]	–	–	–	–	–	–	448,179 M-1s-1	–	–	–
Cc1ccc(C[C@@H](NC(=O)[C@H](CC(=O)O)NC(=O)Cc2ccc(O)c([N+](=O)[O-])c2)C(=O)N[C@H](C(=O)N[C@@H](CC(=O)O)C(=O)COC(=O)c2c(C)cccc2C)C(C)C)cc1 [AB31, Np-D-30-V-D-DMBA]	–	–	–	–	–	–	64,873 M-1s-1	–	–	–
